Measured values: patent US20050234248A1, “Method of producing preparations rich in tocotrienol” (Vis-Vitalis Lizenz- Und Handels Gmbh, priority 2002, published 2005)

Test system: human serum loaded with p-benzoquinone (quinhydron radicals)
Assay: Antioxidant capacity: human serum loaded with p-benzoquinone, colorimetric determination of p-dihydroquinone at 500 nm
Settings: for Antiox-Titer: human serum, p-benzoquinone load, extinction at 500 nm/60 sec; for 1 mg of tocotrienol effect in μg radicals/ml · sec.: per 1 mg of tocotrienol; for Radicals μg/ml · sec: radicals inhibited, converted from extinction
Source text: In this examining method, human serum is subjected to the oxidative stress of a defined amount of para-benzoquinone. By adding defined amounts of the antioxidants to be tested (natural tocotrienol mixture of wheat bran oil, wheat germ oil, tocopherol acetat, D-alpha-tocopherol), the antioxidant load bearing capacity of the test sample is quantitated by calorimetric determination of the para-dihydroquinone that has been reduced from para-benzoquinone. […] Human donor blood is recovered from the vein without any additives and centrifuged at 800-1000 g after having been left standing for 1 h in the refrigerator (approximately +4° C.-+7° C.). The separated serum fractions are removed and pooled. The serum can be stored at -22° C. for about 14 days or immediately be used for the required measurements. To determine the antioxidant capacity of an antioxidant, the serum is radically loaded in stages. p-Benzoquinone was used for radical formation. In a physiological environment (pH=slightly alkaline), this substance is converted into the relatively stable radical anion of the quinhydrone system. In doing so, one hydrogen atom (1 proton/1 electron) of p-benzoquinone is taken up. The further reaction to the stable end product p-dihydroquinone takes place inversely proportionally, at pH 6.9-7.4 within minutes, and primarily linearly to the antioxidant content (reducing agent) in the reaction environment. Thus, the conditions for the applicability of Lambert-Beer's law have been met for determining the end product (dihydro-quinone) as a typically coloured substance. The comparatively stable radical anion (quinhydrone) is converted into the dihydroquinone in a second reduction step by taking up a further electrone (hydrogen from the available antioxidants). […] The calorimetric determination of the amount of end product is effected at λ=500 nm. […] With a linear extinction increase-and a linearly growing consumption of the antioxidant-active substance, the reacted portions can be precisely calculated from the stoichiometric reaction conditions. According to Michaelis/[…] and Pauling, respectively (Holleman-Wiberg; Lehrbuch der Anorganischen Chemie, de Gruyter-Verlag (1995)), the reaction intensity up to the dihydroquinone will depend on the ratio of the concentrations of oxidised to reduced. I.e., the higher the reduction (antioxidant) supply, the more the reaction will be inhibited, the content of the dihydroquinone forming will decrease. Thus, this reaction is excellently suited to be used in redox systems for finely dosed quantitative determinations for substances that are reducingly active. In three parallel measurement series, serum samples ([…] each) of the pool with p-benzoquinone are loaded in three stages (10, 20 and 30 μg). […] In the calculated reaction quantities, the mean of the 60 second value corresponds to the defined titer (=one third reaction). This value precisely results from the graphic illustration of the mean values as extinction curve. All further tests with antioxidant addition are comparatively related to this defined calibration value of the serum pool without antioxidant addition (i.e., with an increasing supply of antioxidants in the serum, the extinction must drop for dihydroquinone). Three parallel measurement series of serum samples were carried out under addition of 500 μg/ml of preparation according to the invention to determine the antioxidant capacity of the tocotrienol-rich wheat bran oils according to the invention. […] Referring to the curve of the extinction values of the comparative serum without additions and the stoichiometric reaction conditions applied (serum determination/concentration of p-benzoquinone/amount per ml of serum dilution), the conversion factor extinction to radical inhibition will result from this calibration system. […] For a more encompassing evaluation of the product quality, the comparison with other antioxidants is required. […]

SMILES | Antiox-Titer | 1 mg of tocotrienol effect in μg radicals/ml · sec. [μg radicals/ml · sec.] | Radicals μg/ml · sec [μg/ml · sec]
Cc1c(C)c2c(c(C)c1O)CC[C@@](C)(CCC[C@H](C)CCC[C@H](C)CCCC(C)C)O2 [D-alpha-Tocopherol, D-alpha-tocopherol] | 0.06 | 0.00674 | 1.6848
CC(=O)Oc1c(C)c(C)c2c(c1C)CCC(C)(CCC[C@H](C)CCC[C@H](C)CCCC(C)C)O2 (stereo partly drawn) [Tocopherol acetate, D,L-alpha-tocopherol acetate] | 0.125 | 0.014 | 3.51
